In the Kinase Knowledgebase extract (Sharma et al. 2016):

Each compound was assayed against EGFR (UniProt P00533).
EGFR, sequence (P00533 whole entry, looked up): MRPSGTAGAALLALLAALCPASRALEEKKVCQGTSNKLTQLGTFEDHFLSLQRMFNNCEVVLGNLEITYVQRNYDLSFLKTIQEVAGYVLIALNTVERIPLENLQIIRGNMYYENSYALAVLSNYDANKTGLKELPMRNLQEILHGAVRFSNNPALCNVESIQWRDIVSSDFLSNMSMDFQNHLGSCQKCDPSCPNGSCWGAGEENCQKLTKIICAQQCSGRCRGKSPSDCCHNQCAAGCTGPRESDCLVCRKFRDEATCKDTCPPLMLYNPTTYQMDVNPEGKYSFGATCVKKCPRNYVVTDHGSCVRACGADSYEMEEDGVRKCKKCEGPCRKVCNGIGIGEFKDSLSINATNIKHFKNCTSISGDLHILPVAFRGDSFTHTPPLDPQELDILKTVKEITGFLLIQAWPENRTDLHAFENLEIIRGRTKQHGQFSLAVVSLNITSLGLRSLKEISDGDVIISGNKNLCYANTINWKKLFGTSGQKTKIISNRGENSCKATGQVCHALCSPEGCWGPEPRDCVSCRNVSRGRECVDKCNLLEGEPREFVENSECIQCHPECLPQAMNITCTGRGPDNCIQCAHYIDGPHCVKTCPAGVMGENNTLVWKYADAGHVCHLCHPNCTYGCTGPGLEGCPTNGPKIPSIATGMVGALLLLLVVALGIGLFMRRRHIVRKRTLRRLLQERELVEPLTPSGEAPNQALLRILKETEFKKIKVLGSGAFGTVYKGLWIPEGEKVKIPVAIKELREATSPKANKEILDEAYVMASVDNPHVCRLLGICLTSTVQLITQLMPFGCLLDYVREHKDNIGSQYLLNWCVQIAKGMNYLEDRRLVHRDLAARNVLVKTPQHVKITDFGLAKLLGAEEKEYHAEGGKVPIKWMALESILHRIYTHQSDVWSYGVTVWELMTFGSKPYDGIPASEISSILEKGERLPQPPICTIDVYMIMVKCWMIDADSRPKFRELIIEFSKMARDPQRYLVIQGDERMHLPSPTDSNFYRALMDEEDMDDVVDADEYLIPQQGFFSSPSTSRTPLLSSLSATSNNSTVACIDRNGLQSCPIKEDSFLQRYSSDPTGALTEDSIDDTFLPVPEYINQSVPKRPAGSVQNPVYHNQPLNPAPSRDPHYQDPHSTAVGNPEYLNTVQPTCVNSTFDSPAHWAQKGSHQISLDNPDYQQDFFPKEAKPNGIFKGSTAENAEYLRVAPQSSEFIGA

inhibition	SMILES
5.2	C[C@@](Cc1cc(O)c(O)c(SC[C@H](NC(=O)CC[C@H](N)C(=O)O)C(=O)NCC(=O)O)c1)(NC(=O)CCN)C(=O)O
4.9	NCCC(=O)NCCc1cc(O)c(O)c(SC[C@H](NC(=O)CC[C@H](N)C(=O)O)C(=O)NCC(=O)O)c1
2.2	NCCC(=O)N[C@@H](Cc1cc(O)c(O)c(SC[C@H](NC(=O)CC[C@H](N)C(=O)O)C(=O)NCC(=O)O)c1)C(=O)O
8.2	NCCC(=O)N[C@H](Cc1cc(O)c(O)c(SC[C@H](NC(=O)CC[C@H](N)C(=O)O)C(=O)NCC(=O)O)c1)C(=O)O

The next lines start with the compound.

SMILES	inhibition
NCCc1cc(O)c(O)c(SC[C@H](NC(=O)CC[C@H](N)C(=O)O)C(=O)NCC(=O)O)c1	1
N[C@H](Cc1cc(O)c(O)c(SC[C@H](N)C(=O)O)c1)C(=O)O	0
N[C@@H](CSc1cc(C[C@H](N)C(=O)O)cc(O)c1O)C(=O)O	2.9
N[C@H](Cc1cc(O)c(O)c(SC[C@H](NC(=O)CC[C@H](N)C(=O)O)C(=O)NCC(=O)O)c1)C(=O)O	0
NCCc1cc(SC[C@H](NC(=O)CC[C@H](N)C(=O)O)C(=O)NCC(=O)O)c(O)c(O)c1SC[C@@H](NC(=O)CC[C@@H](N)C(=O)O)C(=O)NCC(=O)O	7.6
N[C@@H](CCC(=O)N[C@@H](CSc1cc(C[C@H](N)C(=O)O)cc(O)c1O)C(=O)NCC(=O)O)C(=O)O	4.4
